# Earlier results as cited in patent US20140303119A1, “METHODS, APPARATUS, AND COMPOUNDS FOR THE TREATMENT OF CENTRAL RETINAL VEIN OCCLUSION AND OTHER CONDITIONS” (DiLorenzo Biomedical, LLC, priority 2013, published 2014).
# Columns and labels:
# retinal vein occlusion = details: patients with retinal vein occlusion, troxerutin versus placebo
# CRVO = details: review statement, evidence limited (level B, III)
# patients with CRVO = details: 96 patients with CRVO
# [1] = system: thrombosis of the central retinal vein; details: given intravenously, small randomized clinical study
# [2] = system: central retinal vein occlusion
compound,measurement,setting,value
C[C@@H]1O[C@@H](OC[C@H]2O[C@@H](Oc3c(-c4ccc(OCCO)c(OCCO)c4)oc4cc(OCCO)cc(O)c4c3=O)[C@H](O)[C@@H](O)[C@@H]2O)[C@H](O)[C@H](O)[C@H]1O [troxerutin],macular edema versus placebo,retinal vein occlusion,improvement
same,retinal circulation time versus placebo,retinal vein occlusion,improvement
same,visual acuity versus placebo,retinal vein occlusion,improvement
same,outcome of CRVO,CRVO,trend for improvement
"COC(=O)[C@H](c1ccccc1Cl)N1CCc2sccc2C1 [Clopidrogel, (+)-(S)-methyl 2-(2-chlorophenyl)-2-(6,7-dihydrothieno[3,2-c]pyridin-5(4H)-yl)acetate]",incidence of blood disorders compared with ticlodipine,no need for regular monitoring,reduced incidence of blood disorders
"Tissue plasminogen activator (tPA): Tissue plasminogen activator, fibrinolytic therapy",fatal stroke,patients with CRVO,1 patient
same,severe intraocular bleeding,patients with CRVO,3 patients
CCCCC[C@H](O)/C=C/[C@@H]1[C@H]2C/C(=C/CCCC(=O)O)O[C@H]2C[C@H]1O [Prostacyclin],progression to neovascularization versus placebo,[1],no significant difference
same,visual acuity versus placebo,[1],no significant difference
Clc1ccccc1CN1CCc2sccc2C1 [Ticlodipine],"incidence of very serious hematological toxicity, including neutropenia, thrombocytopenia, and aplastic anemia","patients, requires regular monitoring",0.5%-3%
Streptokinase,patients showing deterioration in vision,"[2]; treated group (continuous infusion followed by warfarin), control group 12 of 20",5 of 20
same,patients experiencing massive vitreous hemorrhage with persistence of blindness in those eyes,"[2]; treated group, within 72 hours",3 of 20
